These results are taken from patent US20070225333A1, “3-Heterocyclyl-4-Phenyl-Triazole Derivatives as Inhibitors of the Vasopressin Via Receptor” (priority 2004, published 2007).

The experiment deals with T1, human V1A receptor (Homo sapiens, UniProt P37288).
T1 construct: expressed in transfected cells; host or cells: CHO cells (CHO-hV1A line provided by Marc Thibonnier, Case Western Reserve University)
Put plainly: V1A filter binding assay ([3H]-AVP binding to CHO-hV1A membranes). To be noted: Ki by Cheng-Prusoff. The method, then: 1.0 V1A Filter Binding Assay
Receptor binding assays were performed on cellular membranes prepared from CHO cells stably expressing the human V1A receptor, (CHO-hV1A). The CHO-hV1A cell line was kindly provided under a licensing agreement by Marc Thibonnier, Dept. of Medicine, Case Western Reserve University School of Medicine, Cleveland, Ohio. CHO-hV1A cells were routinely maintained at 37° C. in humidified atmosphere with 5% CO2 in DMEM/Hams F12 nutrient mix supplemented with 10 % fetal bovine serum, 2 mM L-glutamine, 15 mM HEPES and 400 μg/ml G418. For bulk production of cell pellets, adherent CHO-hV1A cells were grown to confluency of 90-100% in 850 cm^2 roller bottles containing a medium of DMEM/Hams F12 Nutrient Mix supplemented with 10% fetal bovine serum, 2 mM L-glutamine and 15 mM HEPES. Confluent CHO-hV1A cells were washed with phosphate-buffered saline (PBS), harvested into ice cold PBS and centrifuged at 1,000 rpm. Cell pellets were stored at −80° C. until use. Cell pellets were thawed on ice and homogenised in membrane preparation buffer consisting of 50 mM Tris-HCl, pH 7.4, 5 mM MgCl2 and supplemented with a protease inhibitor cocktail, (Roche). The cell homogenate was centrifuged at 1000 rpm, 10 min, 4° C. and the supernatant was removed and stored on ice. The remaining pellet was homogenised and centrifuged as before. The supernatants were pooled and centrifuged at 25,000× g for 30 min at 4° C. The pellet was resuspended in freezing buffer consisting of 50 mM Tris-HCl, pH 7.4, 5 mM MgCl2 and 20% glycerol and stored in small aliquots at −80° C. until use. Protein concentration was determined using Bradford reagent and BSA as a standard.
Protein linearity followed by saturation binding studies were performed on each new batch of membrane. Membrane concentration was chosen that gave specific binding on the linear portion of the curve. Saturation binding studies were then performed using various concentrations of [^3H]-arginine vasopressin, [^3H]-AVP (0.05 nM-100 nM) and the Kd and Bmax determined.
Compounds were tested for their effects on [^3H]-AVP binding to CHO-hV1A membranes, (^3H-AVP; specific activity 65.5 Ci/mmol; NEN Life Sciences). Compounds were solubilised in dimethylsulfoxide (DMSO) and diluted to working concentration of 10% DMSO with assay buffer containing 50 mM Tris-HCL pH 7.4, 5 mM MgCl2 and 0.05% BSA. […] The binding reaction was initiated by the addition of 200 μl membrane and the plates were gently shaken for 60 min at room temperature. The reaction was terminated by rapid filtration using a Filtermate Cell Harvester (Packard Instruments) through a 96-well GF/B UniFilter Plate which had been pre-soaked in 0.5% polyethyleneimine to prevent peptide sticking. The filters were washed three times with 1 ml ice cold wash buffer containing 50 mM Tris-HCL pH 7.4 and 5 mM MgCl2. The plates were dried and 50 μl Microscint-0 (Packard instruments) was added to each well. The plates were sealed and counted on a TopCount Microplate Scintillation Counter (Packard Instruments). Non-specific binding (NSB) was determined using 1 μM unlabelled d(CH2)5Tyr(Me)AVP ([β-mercapto-β,β-cyclopentamethylenepropionyl,0-Me-Tyr^2,Arg^8]-vasopressin) (βMCPVP), (Sigma). The radioligand binding data was analysed using a four parameter logistic equation with the min forced to 0%. The slope was free fitted and fell between −0.75 and −1.25 for valid curves. Specific binding was calculated by subtracting the mean NSB cpm from the mean Total cpm. For test compounds the amount of ligand bound to the receptor was expressed as % bound=(sample cpm−mean NSB cpm)/specific binding cpm ×100. The % bound was plotted against the concentration of test compound and a sigmoidal curve was fitted. The inhibitory dissociation constant (Ki) was calculated using the Cheng-Prusoff equation: Ki=IC50/(1+[L]/Kd) where [L] is the concentration of ligand present in the well and Kd is the dissociation constant of the radioligand obtained from Scatchard plot analysis. […]

T1 sequence (P37288 whole entry): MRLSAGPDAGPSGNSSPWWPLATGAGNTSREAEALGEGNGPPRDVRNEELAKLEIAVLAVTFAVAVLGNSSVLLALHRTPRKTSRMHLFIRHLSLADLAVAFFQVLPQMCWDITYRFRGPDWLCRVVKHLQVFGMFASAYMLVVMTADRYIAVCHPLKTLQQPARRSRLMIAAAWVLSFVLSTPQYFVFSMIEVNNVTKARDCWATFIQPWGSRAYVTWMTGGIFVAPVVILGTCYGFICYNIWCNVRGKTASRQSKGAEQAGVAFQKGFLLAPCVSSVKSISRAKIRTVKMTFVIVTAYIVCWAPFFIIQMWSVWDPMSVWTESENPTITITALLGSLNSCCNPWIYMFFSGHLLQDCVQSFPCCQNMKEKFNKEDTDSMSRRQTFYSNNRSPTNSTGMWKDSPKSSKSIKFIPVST

In turn, `CCOCc1nnc(N2CCC(Oc3ncccn3)CC2)n1-c1ccc(Cl)cc1` [Example 38] returned a Ki of 0.96 nM. The value for `COCc1nnc(N2CCC(Oc3ccccn3)CC2)n1-c1ccc(Cl)cc1` [Example 33, 2-({1-[4-(4-Chlorophenyl)-5-(methoxymethyl)-4H-1,2,4-triazol-3-yl]piperidin-4-yl}oxy)pyridine] was 1.28 nM; that for `Clc1ccc(-n2c(Cn3nccn3)nnc2N2CCC(Oc3ncccn3)CC2)cc1` [Example 34, 2-{1-[4-(4-Chloro-phenyl)-5-[1,2,3]triazole-2-ylmethyl-4H-[1,2,4]triazole-3-yl]-piperidin-4-yloxy}-pyrimidine] was 1.06 nM; that for `Cc1nnc(N2CCC(Oc3ccccc3)CC2)n1-c1ccc(Cl)cc1` [Example 26, 1-[4-(4-Chloro-phenyl)-5-methyl-4H-[1,2,4]triazole-3-yl]-4-phenoxy-piperidine] was 3.19 nM. `Cc1nnc(N2CCC(N(C)c3ncccn3)CC2)n1-c1ccc(Cl)cc1` [Example 41, N-{1-[4-(4-Chlorophenyl)-5-methyl-4H-1,2,4-triazol-3-yl]-piperidin-4-yl}-N-methylpyrimidin-2-amine] showed a Ki of 1.49 nM. The figure for `Cc1nnc(N2CCC(N(C)c3ccccn3)CC2)n1-c1ccc(Cl)cc1` [Example 40, N-{1-[4-(4-Chlorophenyl)-5-methyl-4H-1,2,4-triazol-3-yl]-piperidin-4-yl}-N-methylpyridin-2-amine] is 0.5 nM.
